From patent US20230060873A1, “COMPOUNDS AND METHODS FOR FORMING ION CHANNELS IN BIOLOGICAL MEMBRANES” (Washington University, priority 2021, published 2023) come the findings set out here.

In one test the test system is Bacillus subtilis. Put plainly: Toxicity (MIC) of MAcBCE and MAkBCE compounds on B. subtilis. It counts as cell-based. As to conditions: B. subtilis 168 WT with pRB374, 12 h, up to 400 μM. The protocol: XL1 blue strain Escherichia coli cells transformed with pET28a plasmid containing a kanamycin resistance gene, were grown at 37° C. in 2 mL of LB medium (Miller's LB broth, Research Products International) supplemented with 50 μg/mL of kanamycin, until the optical density (OD600) reached 0.6. The starting density of bacteria in the remainder of the experiments was a 1/100 dilution of this bacterial density, which was split into 4 mL cultures. A series of 400, 100, 10 and 5 mM stock solutions of each monoacylated benzo(crown-ether) (MAcBCE) and monoalkylated benzo(crown-ether) (MAkBCE) compounds in trifluoroethanol (TFE) were diluted by addition to the 4 mL cultures to reach final concentrations of 400, 200, 100, 50, 20, 15, 10, 5, 4, 3, 2 and 1 μM. The final TFE concentration was never higher than 0.1% v/v. Negative controls in the presence of TFE 0.1% v/v or in the absence of any treatment for each batch gave similar bacterial growth. The cultures were incubated at 37° C. with agitation for 12 h. Bacillus subtilis (168 WT) toxicity tests were carried out using an identical protocol, except they were transformed with the shuttle plasmid pRB374 in the presence of 5 μg/mL of kanamycin. […] Each compound was assayed a minimum of three times at each tested concentration.
The cytotoxicity of MABCE compounds was determined by measuring the MIC in liquid cultures of either the gram-negative bacteria Escherichia coli or the gram-positive bacteria Bacillus subtilis. […] As some curves overlap, portions of them are hidden. Values of MIC of 400 μM indicate that the value was either 400 μM, or it was higher and then was not determined. Each compound was assayed a minimum of three times at each different concentration. MICs for 5-A-4, 5-A-11, 6-A-11 and 6-O-11 could not be determined because the compounds were not soluble in TFE. While E. coli was not susceptible to any of the tested compounds at concentrations as high as 400 μM (data not shown), B. subtilis was susceptible to MABCE compounds bearing 15-crown-5 and 18-crown-6 scaffolds, but not to compounds containing a 12-crown-4 scaffold, as shown in FIG. 1.

Test [1] can be described thus: Single-channel patch clamp recordings, inside-out, on giant multilamellar vesicles. As to conditions: 10 μM; for single channel conductance with different ions: Na+ and NMDG+ compared with K+; for single channel activity with different ions: NaCl or NMDG-Cl; for NPO / Translocation rate: 100 mV. It counts as biochemical. The protocol:
The liposome preparation was based on protocols employed by Jiang et al., Activation of the archaeal ion channel MthK is exquisitely regulated by temperature, Elife 2020, 9, to reconstitute bacterial ion channels in proteoliposomes (giant multilamellar vesicles; GMLV). The method is adapted to produce plain liposomes. A total of 25 mg of asolectin from soybean (Avanti) was dissolved in 1 mL of chloroform, dried under argon, and kept overnight under vacuum. The dried lipids were resuspended using bath sonication in a resuspension solution (250 mM KCl, 30 mM HEPES, 0.1 mM CaCl2, pH adjusted at 7.6 with KOH) to a final concentration of 15 mg/mL and stored in 30 μL aliquots at −80° C. Aliquots were thawed and placed on a clean glass slide and dried in a desiccator under vacuum at room temperature. The lipids were then rehydrated with 50 μL resuspension solution for more than 2 h to yield the GMLVs.
Direct detection of electrophysiological activity in biological membranes is the gold standard for any putative ion channel. The 6-O-10 and 6-A-10 compounds were tested for ion channel activity by using the patch clamp technique in the inside-out configuration on giant multilamellar vesicles (GMLV) of asolectin.
Single-channel recordings were obtained by patch-clamping GMLV. After seal formation, patches were excised to obtain the inside-out configuration, and then the pipette solution and the bath solution were assumed to be “external” and “internal” solutions, respectively. Pipettes of borosilicate capillary glass 2-000-100 (Drummond Scientific Company) were pulled in a horizontal pipette puller P-97 (Sutter Instrument). Pipette resistance was 5-10 MΩ in any of the solutions tested. Data were acquired with an Axopatch 200A (Axon Instruments) amplifier. Current signals were sampled with a 16-bit A/D converter Axon Digi-data 1550B (Axon Instruments) at a sampling rate of 100 kHz and low-pass filtered at 10 kHz. Data was acquired using Clampex 10.7 (Molecular Devices) acquisition software and analysed with Clampfit 10.7 software (Axon Instruments) and Origin. The temperature in the room was approximately 21° C.
For gap-free experiments, symmetrical (same solution in pipette and bath) KCl solution (200 mM KCl, 30 mM HEPES, pH adjusted to 7.4 with KOH), NaCl solution (200 mM NaCl, 30 mM HEPES, pH adjusted to 7.4 with NaOH) or NMDG-Cl solution (200 mM NMDG, 30 mM HEPES, pH adjusted to 7.4 with HCl) were used for both the internal and external solutions. All the traces were recorded at 100 mV for 5 minutes.
FIGS. 12-14 show single channel activity elicited by 10 μM 6-O-10 in the presence of symmetrical KCl, NaCl and NMDG-Cl solutions, respectively. FIGS. 15-17 show single channel activity elicited by 10 μM 6-A-10 in the presence of symmetrical KCl, NaCl and NMDG-Cl solutions, respectively. Histograms for a total recording time of 900 s are included below every record.
Ion channel activity was measured in the presence of symmetrical 200 mM KCl, NaCl or NMDG-Cl at a concentration of 10 μM for each compound. Three different records of 300 s each were analyzed for every condition shown in (FIGS. 12-17).
To estimate the relative permeabilities of various ions, the product of number of channels (N) and open probability (Po) and the conductance from the amplitude histograms must be taken into consideration (Table 1). Unlike measurements from single ion channels, the present analysis is not constrained to recordings from patches that contain single functional channels. Thus, the possibility that the supramolecular assembly of synthetic channels is dynamic, and that new channels form during recordings with different oligomerization states cannot be ruled out. The only parameter that can be controlled is the concentration of the compounds in solution. All measurements reported here were obtained at 10 μM solution concentration. […]
(In general: The patch-clamp technique gives a direct electrical read-out from membranes.)

Structures are written as SMILES.

`CCCCCCCCCCc1ccc2c(c1)OCCOCCOCCOCCOCCO2` [Compound 6-A-10, 18-decyl-2,3,5,6,8,9,11,12,14,15-decahydrobenzo[b][1,4,7,10,13,16]hexaoxacyclooctadecine]: in the test with Bacillus subtilis, the “toxicity / susceptibility of B. subtilis (MIC, FIG. 1)” value is “most toxic”. Besides, in test [1], the “efficiency of K+ transport compared to 6-O-10” value is given as “an order of magnitude less efficient” and the “single channel conductance with different ions” value is listed as “very similar with the different ions”. Besides, in test [1] (symmetrical 200 mM KCl), the “single channel activity with different ions” value is “does not vary significantly”, the NPO is reported as 0.18 ± 0.02 and the Translocation rate is given as 3.2 ± 0.3 10^6/sec. Further, in test [1] (symmetrical 200 mM NMDG-Cl), the NPO was 0.19 ± 0.12 and the Translocation rate is reported as 5.0 ± 1.9 10^6/sec. Moreover, in test [1] (symmetrical 200 mM NaCl), the NPO is reported as 0.16 ± 0.02 and the Translocation rate is 4.5 ± 0.7 10^6/sec.

On to `CCCCCCCCCC(=O)c1ccc2c(c1)OCCOCCOCCOCCOCCO2` [Compound 6-O-10, 1-(2,3,5,6,8,9,11,12,14,15-decahydrobenzo[b][1,4,7,10,13,16]hexaoxacyclooctadecin-18-yl)decan-1-one], for which the “toxicity / susceptibility of B. subtilis (MIC, FIG. 1)” value in the test with Bacillus subtilis is reported as “most toxic”. Further, in test [1], the “single channel conductance with different ions” value is on record as “only half that observed in the presence of K^+”. In test [1] (from translocation rates), the “efficiency of K+ permeation relative to NMDG+” value was 7 fold and the “efficiency of K+ permeation relative to Na+” value came out at 3.5 fold. Also, in test [1] (symmetrical 200 mM KCl), the “single channel activity with different ions” value was “highest in the presence of K^+ and Na^+ as compared to NMDG^+”; the NPO was found to be 0.58 ± 0.16; the Translocation rate is listed as 43.4 ± 5.8 10^6/sec. Further, in test [1] (symmetrical 200 mM NMDG-Cl), the NPO came to 0.25 ± 0.13 and the Translocation rate is recorded as 7.1 ± 3.4 10^6/sec. In test [1] (symmetrical 200 mM NaCl), the NPO was found to be 0.56 ± 0.10 and the Translocation rate is listed as 11.3 ± 1.1 10^6/sec.
